# Experimental data taken from patent US20100017900A1, “Prostate Epithelial Androgen Receptor Suppresses Prostate Growth and Tumor Invasion” (University of Rochester, priority 2006, published 2010).
# “Also recorded” adds a separate entry of the source.
# Experiments:
# [1] = test system: PC3-AR9 cells; assay: Boyden chamber Matrigel invasion assay of PC3-AR9 cells; type: cell-based, human; details: Matrigel coated Boyden chambers
# Method: The invasion assays used Boyden chambers (Becton Dickinson) with […] inserts and 8 μm pores. Matrigel Matrix ([…] surface area) was placed in medium (1:5 dilution) on the inner layer of the invasion chamber and incubated at 37° C. for 30 min before adding the cells.
# [2] = test system: MMP-9; assay: MMP-9 enzyme (gelatinase) / zymography assay in PC3-AR9 cells; type: cell-based, human; details: for gelatinase activity of MMP-9: PC3-AR9 cells
smiles,measurement,setting,value
"C[C@]12CCC(=O)C[C@@H]1CC[C@@H]1[C@@H]2CC[C@]2(C)[C@@H](O)CC[C@@H]12 [DHT, dihydrotestosterone]",invasion of PC3-AR9,"[1]; in the presence of DHT, compared to PC3-v",decreased
same,gelatinase activity of MMP-9,[2]; 1 nM DHT,suppress
CC(C)(O)C(=O)Nc1ccc([N+](=O)[O-])c(C(F)(F)F)c1 [HF],invasion of PC3-AR9,[1]; addition of HF to DHT,increased
same,gelatinase activity of MMP-9,[2]; 1 μM HF added to 1 nM DHT,restore
CCCCCCCCCCCCCC(=O)O[C@@H]1[C@@H](C)[C@@]2(O)[C@@H](C=C(CO)C[C@]3(O)C(=O)C(C)=C[C@@H]23)[C@@H]2C(C)(C)[C@]12OC(C)=O [TPA],activity of MMP-9 (zymography),[2]; 10 nM TPA,increased; also recorded: enhanced
